In experiment [1] the target is T1, CDK2 (Homo sapiens, UniProt P24941).
T1 construct: HEK293 clonal lines with CRISPR KI HiBiT tag on CDK2 proteins; host or cells: HEK293 clonal line, CRISPR knock-in HiBiT-CDK2, stably expressing LgBiT
The experiment in a line: NanoBiT assay (CDK2 degradation). The settings on record: HEK293, HEK293 clonal line with CRISPR KI HiBiT tag on CDK2, Endurazine live cell substrate, 24 hours. The experiment is classed as cell-based. Here is the method: HEK293 clonal lines with CRISPR KI HiBiT tag on either CDK2 proteins and stably expressing LgBiT protein were obtained from Promega (Madison, WI). Cells were plated at 5000 cells per well using Multiflo (BioTek) in 384-well white solid bottom plates (Corning, 3570BC) in 25 ul volume in DMEM media (DMEM, high glucose, HEPES, no phenol red (ThermoFisher Scientific, 21063029)) containing 10% FBS (Corning, 35-075-CV), 1% Penicillin/Streptomycin ((ThermoFisher Scientific, 15140-122), and 1% Endurazine (Nano-Glo Endurazine Live Cell Substrate (Promega, N2571)). Cells were incubated for 16 hours at 37 C, 5% CO2. 75 nL of a compound at 30 μM were dosed into the plate using an Echo® 650 liquid handler (Labcyte). Cells were incubated at 37° C., 5% CO2 for 24 hours and then signal was read on a Pherastar FSX using “LUM plus” optic module.
Analysis was performed in Scinamic (Scinamic, Cambridge, MA). Luminescence response (R) was calculated by the formula: response=100*(S−N)/(P−N) where S is the signal of the well, N and P the mean negative and positive control values respectively of the same plate. The luminescence response was then fitted in Scinamic using a 3-parameter agonist logistic fit (hillslope=1, EC50>0, top/bottom unconstrained).
(In general: The HiBiT peptide binds its large partner to form an active luciferase.)

The target in experiment [2] is CRBN-DDB1 (Homo sapiens, UniProt Q96SW2). The experiment in a line: Compound binding to CRBN by HTRF assay. As to conditions: CRBN-DDB1 2.5 nM, Cy5-Thalidomide 100 nM, 30 min; Ki from geometric mean IC50 by Cheng-Prustoff transformation. Here is the method: Compound activity was monitored in a Homogenous Time-Resolved Fluorescence (HTRF) assay using 1-[5-({2-[2-(2-{[2-(2,6-dioxopiperidin-3-yl)-1,3-dioxo-2,3-dihydro-1H-isoindol-4-yl]oxy}acetamido)ethoxy]ethyl}carbamoyl)pentyl]-3,3-dimethyl-2-[(1E,3E)-5-[(2E)-1,3,3-trimethyl-5-sulfo-2,3-dihydro-1H-indol-2-ylidene]penta-1,3-dien-1-yl]-3H-indol-1-ium-5-sulfonate as a fluorescent probe. Biochemical assays were conducted in Greiner white 384 well HiBase plates (Cat. No 784075-25) in 10 μL total volume. A one pot detection solution of CRBN-DDB1 (2.5 nM), Anti-His Terbium Cryptate Gold (1×, PerkinElmer Cat. #: 61HI2TLB), and Cy5-Thalidomide (100 nM, Tenova Cat.: T52461) was prepared in 20 mM HEPES, 20 mM NaCl, 0.2 mM TCEP, 0.2 mM EDTA, and 0.005% Tween20 was dispensed to each assay plate. Compounds were stored in dry, ambient temperatures at 10 mM. A 10-point, 1:3 dilution series was prepared from 10 mM stock concentrations in Echo-compatible LDV plates. 10 nL of each compound dilution series was dispensed into assays wells using an Echo 650 (Labcyte inc. USA). 10 nL of 10 mM Lenalidomide was transferred into the active-control wells for the assay and 10 nL of DMSO was transferred into the neutral-control wells. The assay was then allowed to incubate for 30 min at ambient temperature after transferring compound. Plate measurements were taken on a Pherastar FSX (BMG Labtech, Germany) using the HTRF Red filter (Ex. 337 nm, em1: 620 nm, em2: 665 nm) (Flashes: 50, Integration time: 60-400 us, Z-height: 10 mm, Ratio-multiplier: 10,000). The HTRF signal was then subsequently normalized to the neutral and active controls. Analysis and IC50 values were derived using KNIME analytics (KNIME Zurich) transformation and fitting within Collaborative Drug Discovery (Collaborative Drug Discovery USA). Ki was derived from the geometric mean of the IC50 values using the Cheng-Prustoff transformation.
(In general: Time-resolved FRET reads energy transfer from a long-lived donor to a nearby acceptor.)

A value given as a limit tells only on which side of the number the result lay.

Sequence of CRBN-DDB1 (Q96SW2 whole entry): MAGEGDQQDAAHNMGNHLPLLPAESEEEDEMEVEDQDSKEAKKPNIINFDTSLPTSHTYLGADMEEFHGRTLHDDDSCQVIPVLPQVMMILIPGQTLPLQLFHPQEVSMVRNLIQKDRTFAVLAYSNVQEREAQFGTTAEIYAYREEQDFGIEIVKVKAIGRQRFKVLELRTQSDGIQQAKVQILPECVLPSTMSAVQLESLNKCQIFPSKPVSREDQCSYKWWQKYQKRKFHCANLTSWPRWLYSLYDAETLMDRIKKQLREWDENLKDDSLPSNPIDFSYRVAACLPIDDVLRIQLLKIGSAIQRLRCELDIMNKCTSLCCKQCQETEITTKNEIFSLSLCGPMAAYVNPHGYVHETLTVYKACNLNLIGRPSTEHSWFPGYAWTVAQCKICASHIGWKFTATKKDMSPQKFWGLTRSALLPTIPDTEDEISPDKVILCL
Sequence of CRBN-DDB1 (Q16531 whole entry partner): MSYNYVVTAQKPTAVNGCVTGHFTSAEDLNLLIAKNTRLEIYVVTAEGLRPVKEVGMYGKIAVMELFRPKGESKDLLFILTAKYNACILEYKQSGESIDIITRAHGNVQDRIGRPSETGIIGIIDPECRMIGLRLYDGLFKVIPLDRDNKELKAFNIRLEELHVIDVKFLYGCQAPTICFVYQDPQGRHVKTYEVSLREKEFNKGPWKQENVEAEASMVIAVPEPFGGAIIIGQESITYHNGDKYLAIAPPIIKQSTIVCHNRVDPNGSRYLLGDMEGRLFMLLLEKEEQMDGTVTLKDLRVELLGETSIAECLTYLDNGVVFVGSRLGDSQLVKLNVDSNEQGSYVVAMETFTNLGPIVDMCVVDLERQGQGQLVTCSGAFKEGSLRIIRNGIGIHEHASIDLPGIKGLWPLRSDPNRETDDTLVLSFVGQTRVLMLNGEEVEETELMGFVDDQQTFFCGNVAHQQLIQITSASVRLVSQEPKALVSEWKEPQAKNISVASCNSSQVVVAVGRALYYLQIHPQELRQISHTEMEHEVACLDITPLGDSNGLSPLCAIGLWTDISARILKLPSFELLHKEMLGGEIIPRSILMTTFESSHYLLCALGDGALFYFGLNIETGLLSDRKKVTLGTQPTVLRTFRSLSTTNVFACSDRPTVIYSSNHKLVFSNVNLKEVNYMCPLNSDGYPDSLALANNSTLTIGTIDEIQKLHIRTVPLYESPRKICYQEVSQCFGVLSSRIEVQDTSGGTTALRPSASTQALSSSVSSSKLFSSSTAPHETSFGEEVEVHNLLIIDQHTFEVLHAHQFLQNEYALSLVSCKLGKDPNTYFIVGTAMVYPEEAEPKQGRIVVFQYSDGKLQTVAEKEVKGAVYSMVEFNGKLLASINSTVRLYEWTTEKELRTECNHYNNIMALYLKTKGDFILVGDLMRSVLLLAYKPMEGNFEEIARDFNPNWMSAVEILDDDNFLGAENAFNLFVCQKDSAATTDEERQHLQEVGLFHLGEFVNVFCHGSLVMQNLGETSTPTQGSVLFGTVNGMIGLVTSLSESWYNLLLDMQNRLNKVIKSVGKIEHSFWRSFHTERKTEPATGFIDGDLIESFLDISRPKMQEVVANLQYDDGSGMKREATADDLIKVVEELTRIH

Turning to `CC1(COC(=O)NCc2ccc3c(c2)C(=O)N(C2CCC(=O)NC2=O)C3)CCOCC1` (centres unmarked) [Compound 83, (4-methyloxan-4-yl)methyl N-{[2-(2,6-dioxopiperidin-3-yl)-3-oxo-2,3-dihydro-1H-isoindol-5-yl]methyl}carbamate], in experiment [1], the Dmax is at most 10%. In addition, in experiment [2], the Ki lay within 100 to 1000 nM.

In the case of `CS(=O)(=O)N1CC(COC(=O)NCc2ccc3c(c2)C(=O)N(C2CCC(=O)NC2=O)C3)C1` (centres unmarked) [Compound 91, (1-methanesulfonylazetidin-3-yl)methyl N-{[2-(2,6-dioxopiperidin-3-yl)-3-oxo-2,3-dihydro-1H-isoindol-5-yl]methyl}carbamate], in experiment [1], the Dmax is at most 10%. The Ki in experiment [2] was 100 to 1000 nM.

Regarding `CCC1(CCCOC(=O)NCc2ccc3c(c2)C(=O)N(C2CCC(=O)NC2=O)C3)CC1` (centres unmarked) [Compound 101, 3-(1-ethylcyclopropyl)propyl ((2-(2,6-dioxopiperidin-3-yl)-3-oxoisoindolin-5-yl)methyl)carbamate], the Dmax in experiment [1] was 10 to 50%. This compound had a Ki in experiment [2] of 100 to 1000 nM.

In experiment [1], `COc1c(CNC(=O)OCC2CC3(CCC3)C2)ccc2c1C(=O)N(C1CCC(=O)NC1=O)C2` (centres unmarked) [Compound 102, spiro[3.3]heptan-2-ylmethyl ((2-(2,6-dioxopiperidin-3-yl)-4-methoxy-3-oxoisoindolin-5-yl)methyl)carbamate] came in with a Dmax of 10 to 50%. In addition, the Ki in experiment [2] is at most 100 nM.

Take `COc1cc(CNC(=O)OCC2CC3(CCC3)C2)cc2c1CN(C1CCC(=O)NC1=O)C2=O` (centres unmarked) [Compound 103, spiro[3.3]heptan-2-ylmethyl ((2-(2,6-dioxopiperidin-3-yl)-7-methoxy-3-oxoisoindolin-5-yl)methyl)carbamate]: the Dmax in experiment [1] was in the range of 10 to 50%. Further, the Ki in experiment [2] was at most 100 nM.

Consider `O=C1CCC(N2Cc3c(Cl)cc(CNC(=O)OCC4CC5(CCC5)C4)cc3C2=O)C(=O)N1` (centres unmarked) [Compound 104, spiro[3.3]heptan-2-ylmethyl ((7-chloro-2-(2,6-dioxopiperidin-3-yl)-3-oxoisoindolin-5-yl)methyl)carbamate], for which, in experiment [1], the Dmax fell in the range of 50 to 80%. In addition, the Ki in experiment [2] was at most 100 nM.

As to `Cc1cc(CNC(=O)OCC2CC3(CCC3)C2)cc2c1CN(C1CCC(=O)NC1=O)C2=O` (centres unmarked) [Compound 105, spiro[3.3]heptan-2-ylmethyl ((2-(2,6-dioxopiperidin-3-yl)-7-methyl-3-oxoisoindolin-5-yl)methyl)carbamate], in experiment [1], the Dmax fell in the range of 50 to 80%. For the same compound, the Ki in experiment [2] was at most 100 nM.

`N#Cc1cc(CNC(=O)OCC2CC3(CCC3)C2)cc2c1CN(C1CCC(=O)NC1=O)C2=O` (centres unmarked) [Compound 106, spiro[3.3]heptan-2-ylmethyl ((7-cyano-2-(2,6-dioxopiperidin-3-yl)-3-oxoisoindolin-5-yl)methyl)carbamate] showed a Dmax in experiment [1] of 50 to 80%. Also, the Ki in experiment [2] was in the range of 100 to 1000 nM.

Consider `O=C1CCC(N2Cc3ccc(CNC(=O)OC(c4ccccc4)C4CC5(CCC5)C4)cc3C2=O)C(=O)N1` (centres unmarked) [Compound 107, phenyl(spiro[3.3]heptan-2-yl)methyl ((2-(2,6-dioxopiperidin-3-yl)-3-oxoisoindolin-5-yl)methyl)carbamate], for which the Dmax in experiment [1] fell in the range of 50 to 80%. The compound also registered a Ki in experiment [2] of 100 to 1000 nM.

In the case of `O=C1CCC(N2Cc3ccc(CNC(=O)OC(C4CC4)C4CC5(CCC5)C4)cc3C2=O)C(=O)N1` (centres unmarked) [Compound 108, cyclopropyl(spiro[3.3]heptan-2-yl)methyl ((2-(2,6-dioxopiperidin-3-yl)-3-oxoisoindolin-5-yl)methyl)carbamate], the Dmax in experiment [1] is 10 to 50%. In experiment [2], this compound gave a Ki of 100 to 1000 nM.

For the compound `O=C1CCC(N2Cc3ccc(CNC(=O)OC(Cc4ccccc4)C4CC5(CCC5)C4)cc3C2=O)C(=O)N1` (centres unmarked) [Compound 109, 2-phenyl-1-(spiro[3.3]heptan-2-yl)ethyl ((2-(2,6-dioxopiperidin-3-yl)-3-oxoisoindolin-5-yl)methyl)carbamate], the Dmax in experiment [1] lay within 10 to 50%. In experiment [2], this compound gave a Ki of 100 to 1000 nM.

In the case of `O=C1CCC(N2Cc3ccc(CNC(=O)OC(CC4CC4)C4CC5(CCC5)C4)cc3C2=O)C(=O)N1` (centres unmarked) [Compound 110, 2-cyclopropyl-1-(spiro[3.3]heptan-2-yl)ethyl ((2-(2,6-dioxopiperidin-3-yl)-3-oxoisoindolin-5-yl)methyl)carbamate], the Dmax in experiment [1] fell in the range of 10 to 50%. Also, in experiment [2], the Ki lay within 100 to 1000 nM.

The compound `O=C1CCC(N2Cc3ccc(CNC(=S)OCC4CC5(CCC5)C4)cc3C2=O)C(=O)N1` (centres unmarked) [Compound 111, O-(spiro[3.3]heptan-2-ylmethyl) ((2-(2,6-dioxopiperidin-3-yl)-3-oxoisoindolin-5-yl)methyl)carbamothioate] showed a Dmax in experiment [1] of 10 to 50%. The compound also came in with a Ki in experiment [2] of at most 100 nM.

In experiment [1], `CN(C)C(=O)N1CC(OC(=O)NCc2ccc3c(c2)C(=O)N(C2CCC(=O)NC2=O)C3)C1` (centres unmarked) [Compound 112, 1-(dimethylcarbamoyl)azetidin-3-yl ((2-(2,6-dioxopiperidin-3-yl)-3-oxoisoindolin-5-yl)methyl)carbamate] displayed a Dmax of 10 to 50%. Moreover, the Ki in experiment [2] is 100 to 1000 nM.

`CC(OC(=O)NCc1ccc2c(c1)C(=O)N(C1CCC(=O)NC1=O)C2)C1CC2(CCC2)C1` (centres unmarked) [Compound 113, 1-(spiro[3.3]heptan-2-yl)ethyl ((2-(2,6-dioxopiperidin-3-yl)-3-oxoisoindolin-5-yl)methyl)carbamate] returned a Dmax in experiment [1] of 10 to 50%. In experiment [2], this compound displayed a Ki of 100 to 1000 nM.

In turn, `CC(NC(=O)OCC1CC2(CCC2)C1)c1ccc2c(c1)C(=O)N(C1CCC(=O)NC1=O)C2` (centres unmarked) [Compound 114] had a Dmax in experiment [1] of 10 to 50%. This compound displayed a Ki in experiment [2] of 100 to 1000 nM.

In the case of `O=C1CCC(N2Cc3ccc(CNC(=O)OCC4CC5(CCCC5)C4)cc3C2=O)C(=O)N1` (centres unmarked) [Compound 115, spiro[3.4]octan-2-ylmethyl ((2-(2,6-dioxopiperidin-3-yl)-3-oxoisoindolin-5-yl)methyl)carbamate], the Dmax in experiment [1] was 50 to 80%. In experiment [2], this compound gave a Ki of 100 to 1000 nM.

Turning to `CC(C)[C@@H]1C[C@H]1COC(=O)NCc1ccc2c(c1)C(=O)N(C1CCC(=O)NC1=O)C2` (stereo partly drawn) [Compound 116, ((1R,2S)-2-isopropylcyclopropyl)methyl ((2-(2,6-dioxopiperidin-3-yl)-3-oxoisoindolin-5-yl)methyl)carbamate], the Dmax in experiment [1] was 10 to 50%. In addition, the Ki in experiment [2] fell in the range of 100 to 1000 nM.

Regarding `O=C1CCC(N2C(=O)c3ccc(CNC(=O)OCC4CC5(CCC5)C4)cc3C2=O)C(=O)N1` (centres unmarked) [Compound 117, spiro[3.3]heptan-2-ylmethyl ((2-(2,6-dioxopiperidin-3-yl)-1,3-dioxoisoindolin-5-yl)methyl)carbamate], the Dmax in experiment [1] was over 80%. The compound also came in with a Ki in experiment [2] of 100 to 1000 nM.

Compound `O=C1CCC(N2Cc3ccc(C4(NC(=O)OCC5CC6(CCC6)C5)CC4)cc3C2=O)C(=O)N1` (centres unmarked) [Compound 118, spiro[3.3]heptan-2-ylmethyl (1-(2-(2,6-dioxopiperidin-3-yl)-3-oxoisoindolin-5-yl)cyclopropyl)carbamate] displayed a Dmax in experiment [1] of 50 to 80%. In addition, the Ki in experiment [2] was in the range of 100 to 1000 nM.

In experiment [1], `C[C@H]1C[C@H](COC(=O)NCc2ccc3c(c2)C(=O)N(C2CCC(=O)NC2=O)C3)C1` (some centres unmarked) [Compound 119] yielded a maximal degradation (Dmax) of 10 to 50%. This compound had a Ki in experiment [2] of 100 to 1000 nM.

In experiment [1], `C[C@H]1C[C@@H](COC(=O)NCc2ccc3c(c2)C(=O)N(C2CCC(=O)NC2=O)C3)C1` (some centres unmarked) [Compound 120, ((1s,3s)-3-methylcyclobutyl)methyl ((2-(2,6-dioxopiperidin-3-yl)-3-oxoisoindolin-5-yl)methyl)carbamate] registered a Dmax of 10 to 50%. The compound further yielded a Ki in experiment [2] of 100 to 1000 nM.

Broadly, the Dmax is the greatest extent of degradation seen. Lower therefore signals shallow degradation. By Ki is commonly meant the equilibrium dissociation constant of an inhibitor or competing ligand from its target. High values mean lower affinity, low ones higher affinity.

The values are drawn from patent publication US20240317706A1, “COMPOUNDS THAT MEDIATE PROTEIN DEGRADATION AND METHODS OF USE THEREOF” (Monte Rosa Therapeutics, Inc., priority 2021, published 2024).
